Values joined by “and” are separate entries in the source; they are usually repeats but may differ in a detail not shown here. Equal entries are not always repeated. Where two headings read alike, the source gives them in different places.
Key:
MDA-MB-435S.luc cells = type: cell-based, human
From the text: This example describes screening for cell toxicity (IC50) and hemolytic activity using a human breast cancer cell line.
The human melanoma cell line MDA-MB-435S.luc, which over expresses chorionic gonadotrophin (CG) and luteinizing hormone-releasing hormone (LHRH) receptors, was used to screen at passage numbers 248-252. The MDA-MB-435S.luc cell line was constructed from the MDA-MB-435S cell line obtained from the American Type Cell Culture Collection by stable transfection with the plasmid PRC/CMV-luc containing the Photinus pyralis luciferase gene and an […] resistance gene by lipofection. The stably transfected cell line was selected using G418 and the clones with the highest expression for the luciferase gene were tested for their LH and LHRH receptor expression.
MDA-MB-435S.luc cells were grown in Leibovitz's L 15 medium, 10% fetal bovine serum, 0.01 mg/ml bovine insulin, 100 IU/ml penicillin, 100 microg/ml streptomycin. The cells were cultured in tight closed flasks. The incubations were conducted using 96 well plates at 10,000 cells per well. Cells were typically seeded into 96 well plates and media was replaced after 48 hours of incubation. Each assay was conducted at increasing concentrations of 0, 0.001, 0.01, 0.05, 0.1, 0.5, 1, 2, 5, 10 and 100 micromolar doses of lytic peptide-binding domain conjugate. Each lytic peptide-binding domain conjugate provided in lyophilized form and was freshly dissolved in saline and added to cells. The duration of incubation was typically 24 h, and cell viability assays were conducted using formazan conversion assays (MTT assay). Controls contained saline or 0.1% triton as reference for 0 and 100% cell death, respectively.
Data were processed and analyzed using Graph Pad Prizm 4™ software (Graph Pad Prizm, Inc). Statistical analysis for significance was determined by a two-tailed Student's T-test. Each study was conducted to achieve an N of at least 8.

MDA-MB-435S cells = assay: Time course of cytotoxicity in MDA-MB-435S cells (MTT); type: cell-based, human; settings: for IC50: MDA-MB 435S; for incubation time to maximal efficacy: MDA-MB-435S cells
From the text: (§1) Membranes of non-cancerous cell lines are neutral and are resistant to cytolytic peptides, in contrast to cancer cell lines, which have a high phosphatidic acid content in their outer membrane.
(§2) The melanoma cell line studied was MDA-MB-435S (estrogen receptor alpha negative), breast cancer cell lines MCF-7 and T47D (estrogen receptor alpha positive), ovarian cancer cell lines (OVCAR-3 and SKOV-3), prostate cancer (LNCaP), the non-malignant breast epithelial cell line MCF-10A and the mouse fibroblast cell line NIH:3T3.
(§3) Cells were seeded into 96 well plates at a density of 10,000 cells/well. […] Controls contained USP saline or 0.1% TritonX-100™ as reference for 0 and 100% cell death, respectively. Incubations were terminated by removing the culture media after 2 minutes, 5 minutes, 15 minutes, 30 minutes, 1 hour, 2 hours, 6 hours, 24 and 48 hours. Cell viability was assessed through formazan conversion assay (MTT assay, (CellTiter 96 Aqueous One, Promega # G3582). Formazan conversion was determined using a BioRad Benchmark Plus microplate spectrophotometer dual wavelengths at 490/630 nm at room temperature).
(§4) Data were calculated as fraction of absorption in TritonX-100™ containing wells representing 100% cell death versus 0% cell death in saline containing wells. Cytotoxicity was determined as ICso using GraphPad Prism version 5.01 for Windows, GraphPad Software, San Diego California USA according to the program for sigmoidal dose response with variable slope using constraint values of 0 and 100%. 4 wells of each individual set of two 96 well plates were compared and analyzed. Statistical analysis for significance was determined by a two-tailed Student's T-test.

MCF-7 cells = assay: Time course of cytotoxicity in MCF-7 cells (MTT); type: cell-based, human; settings: for incubation time to maximal efficacy: MCF-7 cells
From the text: as §1, §2, §3, §4

OVCAR-3 cells = type: cell-based, human; settings: for incubation time to maximal efficacy: OVCAR-3 cells
From the text: as §1, §2, §3, §4

SKOV-3 cells = assay: Time course of cytotoxicity in SKOV-3 cells (MTT); type: cell-based, human
From the text: as §1, §2, §3, §4

NIH:3T3 = type: cell-based, mouse; settings: noncancerous cell line 3T3
Experimental: as §2, §3
as §4, with “Statistical analysis for significance was determined by a two-tailed Student's T-test.” left out

MDA-MB-435S xenograft = assay: MDA-MB-435S xenograft, minimal effective dose, once weekly; type: in vivo, Nu/Nu mice
Experimental: To determine the minimal effective dose necessary to reduce MDA-MB-435S xenograft weights in a single dose regimen, Nu/Nu female mice, outbred strain, age 5 weeks (Charles River), were injected (s.c.) into the interscapular region with a MDA-MB-435S (passage #249)/Matrigel suspension (2.4×10^6 cells/mouse) [Leuschner 2006].
Each group consisted of 16 mice, which were injected once a week for 3 weeks. A group of 16 mice was sacrificed at the time of treatment start to serve as baseline. Saline injections served as control groups. During the entire study tumor volumes were recorded twice weekly.
Treatment started on day 16 after tumor cell injection when the tumors were established and continued on days 23 and 30. All remaining mice were necropsied 37 days after tumor cell injection.
Treatment response was determined by tumor weights and tumor weight change at necropsy compared to saline controls and untargeted CLIP71 treatment. Primary tumors were collected, weighed and prepared for histological evaluation in formalin fixation with 10% PBS buffered formalin. Statistical evaluation of data sets were conducted in GraphPad Prizm 4 and significance calculated by Wilcoxon signed-rank test.

PC-3 xenograft = assay: PC-3 prostate cancer xenograft; type: in vivo, Nu/Nu mice; settings: for tumor growth: PC-3 xenograft, CLIP71 5 mg/kg
Experimental: In brief, Nu/Nu male mice, outbred strain, age 6 weeks (Charles River) were injected subcutaneously with a PC-3 cells/Matrigel suspension (1×10^6 cells/mouse). Treatment was started on day 15 after tumor cell injection when the tumors were established and continued on days 22 and 29. The doses for the 3 weekly injections were 2, 0.2 and 0.02 mg/kg body weight, given as a bolus single intravenous injection via lateral tail vein.
A group of 12 tumor bearing mice was sacrificed on day 15 and served as baseline group. All mice were necropsied 35 and 36 days after tumor cell injection. Tumor volumes and bodyweights were recorded twice weekly during the study, as well as overall veterinarian examination of mice was conducted.
Primary tumors, liver, kidney, pancreas, heart, lung, and spleen were collected, fixed in formalin and prepared for histological evaluation. Tumor weights were measured at necropsy, part of the tumors were frozen at −80° C. for LH/CG and LHRH receptor assay determination.

[1] = MDA-MB-435S.luc cells, 24 h, MTT, read-out: IC50
[2] = MDA-MB-435S.luc, 1 × 3 wk, 22 d, minimal effective dose study

## KFAKFAKKFAKFAKKFAK [Phor18, reference compound]
MDA-MB-435S.luc cells; [1]
  IC50: 2060 ± 500 nM
MDA-MB-435S cells; 24 hours
  IC50: 55100 nM
MDA-MB-435S cells; 48 hours
  IC50: 3000 nM
MDA-MB-435S cells
  incubation time to maximal efficacy: 24 h
MCF-7 cells
  incubation time to maximal efficacy: 24 h
OVCAR-3 cells
  incubation time to maximal efficacy: 24 h
SKOV-3 cells; SKOV-3 (SKOV-3 and HEK 1A), 24 hours, read-out: IC50
  IC50: 11800 nM
SKOV-3 cells; SKOV-3 (p40), listed as CLIP71, read-out: IC50 with increasing incubation time
  IC50: 86000 nM and 96000 nM and 53000 nM and 50000 nM
NIH:3T3
  IC50: > 40000 nM
MDA-MB-435S xenograft; CLIP71 plus LHRH 0.2/0.122 mg/kg
  tumor volumes and tumor weights: did not decrease tumor weights
PC-3 xenograft
  tumor growth: tumor growth was observed

## KFAKFAKKFAKFAKKFAKQHWSYGLRPG [Phor18-LHRH]
MDA-MB-435S.luc cells; IC50 of 33 (Phor21-βCG-ala, 2.31 μM)/IC50 peptide, MDA-MB-435S.luc
  Increased in vitro activity fold: 2.65 fold
MDA-MB-435S.luc cells; [1]
  IC50: 870 ± 110 nM
MDA-MB-435S.luc cells; MDA-MB-435S.luc cells, places that print μm (Table 2: lytic peptide row + hinge column + ligand section), read-out: IC50
  IC50: 870 nM
MDA-MB-435S.luc cells; MDA-MB-435S.luc melanoma cell line, read-out: IC50 in Human Cancer Cell Lines
  IC50: 860 ± 160 nM
MDA-MB-435S cells; 0.5 hour
  IC50: 1200 nM
MDA-MB-435S cells; 1 hour
  IC50: 600 nM
MDA-MB-435S cells
  incubation time to maximal efficacy: 1 h and 0.5 to 1 h
MCF-7 cells; MCF-7 (p152), read-out: IC50 with increasing incubation time
  IC50: 1800 to 3400 nM
MCF-7 cells
  incubation time to maximal efficacy: 1 h and 0.5 to 1 h
OVCAR-3 cells; OVCAR-3 (p47), read-out: IC50 with increasing incubation time
  IC50: 500 nM
OVCAR-3 cells
  incubation time to maximal efficacy: 1 h and 0.5 to 1 h
SKOV-3 cells; SKOV-3 cells
  incubation time to maximal efficacy: 24 h
NIH:3T3
  IC50: > 10000 nM
MDA-MB-435S xenograft; [2]
  Median Tumor Weight vs Baseline p < 0.05 (lowest dose): 2 µg/kg
  Median Tumor Weight vs Saline P < 0.05 (lowest dose): 0.2 µg/kg
MDA-MB-435S xenograft; Phor18-LHRH at doses as low as 0.0002 mg/kg, CLIP71/LHRH 0.2/0.122 mg/kg
  Remarks / histology of tumors: significant necrosis
PC-3 xenograft; 22 days after tumor cell injection, p<0.001
  lowest concentration with tumor volume reduction compared to saline controls and CLIP71: 0.002 mg/kg bodyweight
PC-3 xenograft; PC-3, 1 × 3 wk, 21 d
  Median Tumor Weight vs Baseline p < 0.05 (doses): 0.2
PC-3 xenograft
  tumor growth: effective in arresting tumor growth

Reference: US20240228542A1, “LYTIC DOMAIN FUSION CONSTRUCTS, CHECKPOINT INHIBITORS, AND METHODS OF MAKING AND USING SAME” (A28 Therapeutics Inc., priority 2020, published 2024)
